One data set concerns HCT-116 cells. Nature of the data set: 5FU toxicity in HCT-116 cells after TYMS or DHFR knockdown, SYBR Green. The conditions noted are these: 5FU continuous for 3 days, read-out: IC50 value of 5FU following TYMS knockdown, HCT-116. In kind it is cell-based. The protocol: (§1) HCT-116 and A549 cells were transfected as described above with 0.1, 1.0 and 10 nM of three TYMS-specific siRNAs, labeled TYMS-1, TYMS-2 and TYM-3 (SEQ ID NO: 4833-4835 (DNA), and SEQ ID NO: 5139-5141 (RNA), or 1.0 and 10 nM control siRNAs (809-ctrl; SEQ ID NO: 4805 (DNA), and SEQ ID NO: 5302 (RNA) and 81ctrl; SEQ ID NO: 4804 (DNA), and SEQ ID NO: 5301 (RNA)). HCT-116 and A549 cells were also similarly transfected with 0.1, 1.0 and 10 nM of three DHFR-specific siRNAs, labeled DHFR-1, DHFR-2 and DHFR-3 (SEQ ID NO: 4836-4838 (DNA), and SEQ ID NO: 5142-5144 (RNA)), or control siRNA (SEQ ID NO: 4805 (DNA), and SEQ ID NO: 5302 (RNA)). Twenty four hours after transfection, cells were exposed to 5FU using a serial dilution starting at 44 μM, in medium containing either 10% normal FCS or 10% dialyzed FCS as described above. 5FU treatment was continuous for 3 days, at which time cell growth was analyzed by measuring DNA content per well using the SYBR Green assay outlined above. […] This combinatorial inhibitory effect was further increased when experiments were done in medium containing dialyzed FCS (FIGS. 27D-F; FIGS. 28D-F).
(§2) FIGS. 29 and 30 show transfection with DHFR siRNA similarly led to a dose-dependent increase in growth inhibition above that caused by the drug alone (control siRNA-transfected cells) in HCT-116 cells (FIGS. 29A-C), and A549 cells (FIGS. 30A-C). This combinatorial inhibitory effect was further increased when experiments were done in medium containing dialyzed FCS (FIGS. 29D-F; FIGS. 30D-F). The changes in the IC50 value for 5FU in HCT-116 and A549 cells following TYMS knockdown by individual siRNAs are listed in Table 16 below.

Data set [1] relates to A549 cells. Nature of the data set: 5FU toxicity in A549 cells after TYMS or DHFR knockdown, SYBR Green. It counts as cell-based, human. The note with it: 5FU continuous for 3 days, read-out: IC50 value of 5FU following TYMS knockdown, A549. The procedure:
as §1, §2

For data set [2], the system named is A549 cells. Nature of the data set: Growth inhibition of siRNA-transfected A549 cells, SYBR Green I DNA content. The conditions noted are these: 10 nM siRNA; for Growth Inhibition in A549 cells: DNA content 96 hours after transfection. It counts as cell-based, human. The procedure, abridged:
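A549 cells reverse-transfected with 10 nM Stealth siRNAs via Lipofectamine RNAiMAX, seeded at 5×10^3 cells/cm^2 in RPMI 1640/10% FCS; non-specific siRNA control. DNA content read 96 h post-transfection by SYBR Green I fluorescence (ex 485/em 535 nm) after freeze-thaw and Triton X-100 lysis; mean of three wells.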

For another data set, the system named is YBX1 mRNA. Nature of the data set: YBX1 mRNA level by quantitative RT-PCR in A549 cells. In kind it is cell-based, human. The conditions noted are these: 10 nM siRNA; 24 h post-transfection. The protocol: A549 cells were transfected with 10 nM RRM1-1 (SEQ ID NO: 4830 (DNA), and SEQ ID NO: 5136 (RNA); light grey bar in FIG. 12A), RRM1-2 (SEQ ID NO: 4831 (DNA), and SEQ ID NO: 5137 (RNA); dark grey bar in FIG. 12A), RRM1-3 (SEQ ID NO: 4832 (DNA), and SEQ ID NO: 5138 (RNA); black bar in FIG. 12A) or control siRNA (SEQ ID NO: 4804 (DNA), and SEQ ID NO: 5301 (RNA)) (open bar in FIG. 12A) and relative mRNA levels quantified 24 h post-transfection. RNA was purified from cells using Trizol® extraction as per the manufacturer's protocol (Invitrogen). cDNA was prepared by digesting approximately 200 ng purified RNA with DNAse I (Invitrogen) for 15 minutes at room temperature, followed by 15 minutes at 65° C. in the presence of 25 mM EDTA. 30 ng random primers were added and incubated for 10 minutes at room temperature, 1 minute on ice; Superscript III polymerase (Invitrogen) was added in presence of 5 nM DTT (Sigma, St Louis, Mo.) and 1 mM deoxyribonucleotides (Invitrogen), and the reaction incubated at 25° C. for 5 minutes, followed by an hour at 55° C. cDNA was diluted 1:3 in 10 mM Tris pH 7.0, and quantitative RT-PCR carried out on an ABI Prism 7900HT (Applied Biosciences, Inc., Foster City, Calif.) using FastStart TaqMan SYBRGreen (Roche, Basel, Switzerland) and specific primers at 360 nM for RRM1 and RRM2 and the housekeeping genes HPRT and Lamin. Primer sequence pairs used for RRM1, RRM2, HPRT and lamin are given in SEQ ID NO: 4881 and 4882; 4883 and 4884; 4885 and 4886; 4887 and 4888 respectively.
A549 cells were transfected with 0.1, 1.0 and 10 nM siRNA (given in SEQ ID NO: 4981 to 4985 (DNA), and SEQ ID NO: 5276-5280 (RNA)) and the relative mRNA levels quantified 24 h post-transfection as described in Example 8.

The subject of a further data set is SK-Mel-5 cells. Nature of the data set: Growth inhibition of siRNA-transfected SK-Mel-5 cells, SYBR Green I DNA content. It counts as cell-based, human. The note with it: 10 nM siRNA; standardized against control siRNA. The procedure:
A549 cells (human lung cancer cell line; ATCC No. CCL-185), SK-MeI-5 cells (human melanoma cell line; ATCC No. HTB-70), MCF-7 cells (human adenocarcinoma cell line; ATCC No. HTB-22), HCT-116 cells (colorectal carcinoma; ATCC CCL-247) and HCT-116 p53 null cells (derived from ATCC No. CCL-247; Bunz et al., Science 282:1497-1501, 1998) were cultured in RPMI 1640 medium with 10% v/v heat-inactivated fetal calf serum (FCS). Cells were seeded at a density of 5×10^4 cells/cm^2 in multi-well tissue culture plates. Sequences of Stealth™ siRNA duplexes (Invitrogen) targeting human ribonucleotide reductase subunit 1 (SEQ ID NO: 22) and subunit 2 (SEQ ID NO; 38) are given in SEQ ID NO: 4830-4832 (DNA), and SEQ ID NO: 5136-5138 (RNA) for RRM1, and SEQ ID NO: 5306-5308 (DNA), and SEQ ID NO: 5303-5305 (RNA) for RRM2. siRNAs were transfected at different concentrations into cells using Lipofectamine™ RNAiMAX transfection reagent (Invitrogen). Non-specific siRNA (SEQ ID NO: 4804 and 4805 (DNA), and SEQ ID NO: 5301 and 5302 (RNA)) were used as controls. The cellular DNA content was measured using a SYBR Green I-based fluorometric assay at 24, 48, 72 and 96 hours after transfection (120 hours for the MCF-7 cells), as follows. At the indicated time points following reverse transfection, cells were harvested and frozen at −80° C. overnight. Cells were thawed and cell lysis buffer (phosphate-buffered saline (PBS) containing 1% Triton X-100, pH 7) and SYBR Green I (1:10^5 V/V; Invitrogen) was added to the wells and incubated overnight in the dark at 4° C.
The following day, cell lysates were mixed thoroughly, and DNA fluorescence was measured with a Wallac Victor^2 plate reader (Turku, Finland) set at an excitation frequency of 485 nm and measuring emission at 535 nm.
siRNA-mediated inhibition of cancer cell growth using siRNA targeting the YBX1 gene (SEQ ID NO: 92) was determined as follows. SK-MeI-5 cells were cultured in RPMI 1640 medium with 10% v/v heat-inactivated fetal calf serum. Cells were cultured as described above and reverse transfected with 0.1, 1.0, 10 and 40 nM (final concentration) of a pool of YBX1-targeting siRNAs (SEQ ID NO: 4982 and 4983 (DNA), and SEQ ID NO: 5277 and 5278 (RNA); referred to as 994 and 995 in FIG. 19) or a non-specific control (SEQ ID NO: 4804 (DNA), and SEQ ID NO: 5301 (RNA); referred to as Stealth 81 ctrl in FIG. 19), and cell growth determined after 120 h by measuring DNA fluorescence with a Wallac Victor^2 plate reader (Turku, Finland) set at an excitation frequency of 485 nm and measuring emission at 535 nm. Growth inhibition by the siRNA pool was standardized against the inhibition obtained with the control siRNAs.
siRNA-mediated RNAi was also determined on a panel of different cell lines. A549, SK-MeI-5, wt HCT-116, HCT-116−/−p53 and MCF-7 cells were transfected with 10 nM siRNAs targeting YBX-1 and growth inhibition determined as described above. The YBX1 siRNAs are given in SEQ ID NO: 4981 to 4985 (DNA) and SEQ ID NO: 5276-5280 (RNA). A non-specific siRNA (SEQ ID NO: 4804 (DNA) and SEQ ID NO: 5301 (RNA)) was used as control. Growth inhibition by the siRNAs, given in Table 14, was standardized against the inhibition obtained with the control siRNA.

Setting [3] is: cells transfected with 0.1 nM siRNA.
The mark [4] stands for this setting: cells transfected with 1 nM siRNA.
The mark [5] stands for this setting: cells transfected with 10 nM siRNA.

Like-named read-outs stand apart in the source and are kept apart here.

As for “SEQ ID NO: 4805: non-specific control siRNA (chain 1 GGGAAATGTCTCCTCCCATTGATTT; chain 2 GGGAAAUGUCUCCUCCCAUUGAUUU; chemistry not given here; one strand in two spellings) [reference compound]”, the IC50 with HCT-116 cells (setting [3]) came out at 650 nM; in the data set with HCT-116 cells (setting [4]), 600 nM; with HCT-116 cells (setting [5]) it was 600 nM; in the data set on A549 cells [1] (setting [3]), 820 nM; in the data set on A549 cells [1] (setting [4]), 670 nM; in the data set on A549 cells [1] (setting [5]) it was 640 nM.

Turning to “SEQ ID NO: 4834: siRNA targeting TYMS (chain 1 TGTGGATCCCTTGATAAACCACAGC; chain 2 UGUGGAUCCCUUGAUAAACCACAGC; chemistry not given here; one strand in two spellings)”, the IC50 in the data set on HCT-116 cells (setting [3]) was found to be 410 nM; in the data set with HCT-116 cells (setting [5]) it was 100 nM; in the data set on A549 cells [1] (setting [3]) it was 590 nM; with A549 cells [1] (setting [4]), 210 nM; with A549 cells [1] (setting [5]), 150 nM. Further, the “Growth Inhibition in A549 cells” value in the data set with A549 cells [2] is on record as “++ (inhibits by at least 75%)”.

For “SEQ ID NO: 4835: siRNA targeting TYMS (chain 1 ATTCAGGTAAATATGTGCATCTCCC; chain 2 AUUCAGGUAAAUAUGUGCAUCUCCC; chemistry not given here; one strand in two spellings)”, the IC50 stood at 320 nM in the data set on HCT-116 cells (setting [3]); 190 nM in the data set on HCT-116 cells (setting [4]); 110 nM in the data set on HCT-116 cells (setting [5]); 610 nM with A549 cells [1] (setting [3]); 130 nM with A549 cells [1] (setting [4]); 200 nM in the data set with A549 cells [1] (setting [5]). Moreover, the “Growth Inhibition in A549 cells” value with A549 cells [2] is listed as “++ (inhibits by at least 75%)”.

As for “SEQ ID NO: 4981: siRNA targeting YBX1 (chain 1 TGGATAGCGTCTATAATGGTTACGG; chain 2 UGGAUAGCGUCUAUAAUGGUUACGG; chemistry not given here; one strand in two spellings)”, the “growth inhibition, A549 cells” value in the data set with A549 cells [2] (standardized against control siRNA) is “+ (At least 20% inhibition)”. Also, the “YBX1-specific reduction of mRNA levels in A549 cells” value in the data set on YBX1 mRNA is given as “++ (At least 50% inhibition)”. In addition, in the data set on SK-Mel-5 cells, the “growth inhibition, SK-Mel-5 cells” value is “++ (At least 50% inhibition)”.

Source of the values: patent publication US20080145313A1, “Compositions and Methods for the Treatment and Prevention of Neoplastic Disorders” (Genesis Research & Development Corporation Limited, priority 2006, published 2008).
